Experimental data from patent US11260108B2, “MIC-1 and GLP-1 for use in the treatment of obesity” (Novo Nordisk A/S, priority 2017, dated 2022).

System: male obese Sprague Dawley rats
Experiment: Body weight lowering in obese rat, MIC-1-HSA in combination with semaglutide (Example 2)
Type: in vivo
From the text: The purpose of the study in example 2 was to investigate effects of a MIC-1-HSA compound in combination with the GLP-1 compound semaglutide on body weight lowering in obese rat.
60 male obese Sprague Dawley rats from Taconic were used. Animals where housed 2 per cage and had ad libitum access to high-fat diet (45 kcal % fat, Research Diets Inc, diet 12451). Mean starting body weight was 736.0 g (634.7-982.4 g). Animals were randomised into 6 groups based on body weight (n=10). Animals were housed in reversed light cycle (dark 11:00-23:00). Vehicle and semaglutide were dosed subcutaneously (SC) once daily (QD) for the duration of the study (study day 0-26) at 10 am. Because of the immunogenic properties of MIC-1-HSA in rodents, the dosing period with MIC-1-HSA was limited to 12 days. MIC-1-HSA was dosed SC every other day, starting at study day 15 and ending at day 26. The two compounds were in all cases dosed individually and were not administrated in the same formulation using the same syringe.
Due to a long in vivo terminal half-life of MIC-1 HSA (˜50 hrs in lean rat) animals were dosed with a bolus dose at day 15 and subsequent doses of MIC-1-HSA were reduced to compensate for the protracted half-life to achieve a stable plasma exposure during the study. […] Dose volume was adjusted to daily body weight. Please see table 3.
The dose of Semaglutide was 2 nmol/kg and was selected in order to achieve a therapeutic relevant pharmaco-dynamic effect.
From day −1 and during the entire dosing period until day 26, body weight was monitored daily prior to dosing.
The dosing was performed using insulin syringe and a dosing volume of 1 ml/kg (2.3 ml/kg for bolus dose of MIC-1-HSA).
In table 4 are shown pharmacodynamic effects expressed as changes in body weights of obese rats in response to the 6 treatment arms. Data are expressed as the average values as grams (A) and as percentages (B). “Delta 0-26” is the change in body weight from day 0 to day 26. “vs vehicle” is the change in body weight at day 26 in comparison with the vehicle group at day 26. “Predicted” is the expected change in body weight based on body weight changes in the associated MIC-1-HSA and semaglutide mono-therapy arms. “Synergy” expresses the unexpected and additional effect beyond the predicted effect of the MIC-1-HSA and semaglutide combination. This value is calculated by subtracting the predicted value from the actual effect of the combination (vs vehicle). A negative synergy value reflects an additional unexpected synergistic body weight lowering effect.

[1] = Sema 2 nmol/kg, change day 0 to day 26
[2] = Sema 2 nmol/kg, day 26 vs vehicle group

N6.26-{18-[N-(17-carboxyheptadecanoyl)-L-γ-glutamyl]-10-oxo-3,6,12,15-tetraoxa-9,18-diazaoctadecanoyl}-[8-(2-amino-2-propanoic acid),34-L-arginine]human glucagon-like peptide 1(7-37) [Sema]
Body weight [% of study start] Study end (Sema 2 nmol/kg SC QD day 0-26): 95 % of study start | Body weight [gram] Study end (Sema 2 nmol/kg SC QD day 0-26): 746 gram | Body weight [% of study start] Delta 0-26 [1]: −5.4 % of study start | Body weight [gram] Delta 0-26 [1]: −41.8 gram | Body weight [% of study start] vs vehicle [2]: −8.0 % of study start | Body weight [gram] vs vehicle [2]: −62.2 gram | reduced body weight compared to vehicle (semaglutide monotherapy 2 nmol/kg, day 26): 8.0%
